Results: patent publication US20060222792A1, “Temozolomide storage system” (CHEMAGIS LTD., priority 2006, published 2006)

Key:
Type in all cases: physicochemical
[1] = Storage stability of temozolomide in type 3 packaging, purity by HPLC (Example 3); details: for Initial purity, % by HPLC: before starting the storage period; for Initial purity, % by HPLC / Purity, % by HPLC after 1 month of storage / Purity, % by HPLC after 2 months of storage / Purity, % by HPLC after 6 month of storage: % area; for Purity, % by HPLC after 1 month of storage / Purity, % by HPLC after 2 months of storage / Purity, % by HPLC after 6 month of storage: warehouse conditions; for Purity, % by HPLC after 6 month of storage: 6 months
Experimental: Analytical measurements of the temozolomide samples were performed using an HPLC system equipped with Phenomenex Synergi™ Fusion-RP C18 column, 250×4.6 mm, and a UV detector operated on 250 nm. Analyses were performed using the following mobile phase, at flow rate of 1.0 ml/minute: Mobile phase: 90% Solution A: 0.02M potassium dihydrogen phosphate buffer (pH 3); 10% Solution B: acetonitrile.
Three different samples of temozolomide were stored at warehouse conditions in a type 3 packaging. A small quantity was taken from each sample after 1, 2 and 6 months and the purity was checked by HPLC and compared to the original HPLC chromatogram of each sample (before starting the storage period). The purity of each sample was obtained as % area by the HPLC chromatogram and compared to the initial purity value (before starting the storage period).

[2] = Colour stability of temozolomide in different drug packaging at warehouse conditions (Example 2)
Description: Exemplary packaging, which can be used in the storage system of the present invention, can include, e.g., packaging type 1, packaging type 2 and/or packaging type 3. When packaging type 1 is used, the temozolomide is preferably contained (e.g., packed or packaged) in a sealed transparent polymeric bag (e.g., a sealed polyethylene bag). When packaging type 2 is used, the temozolomide is preferably contained (e.g., packed or packaged) in a sealed transparent polymeric bag (e.g., a sealed polyethylene bag), which is inserted into another opaque (e.g., black) polymeric bag (e.g., a black polyethylene bag), which is then sealed effectively to prevent penetration of humidity, oxygen and/or light. When packaging type 3 is used, the temozolomide is preferably contained (e.g., packaged or packed) in a sealed transparent polymeric bag (e.g., a sealed polyethylene bag), which is inserted in an opaque (e.g., black) polymeric bag (e.g., a black polyethylene bag), which is then sealed and, in turn, put inside a sealed laminated aluminum bag, which is then sealed. For packaging type 2 and packaging type 3, a desiccant can be interposed (e.g., dispersed) between the two plastic layers (e.g., between the transparent and opaque polymeric bags).
Exemplary packaging for the storage system of the present invention can include packaging type 1, wherein temozolomide is packed and sealed in a transparent polyethylene bag. Exemplary packaging for the storage system of the present invention also can include packaging type 2, wherein temozolomide is packed and sealed in a transparent polyethylene bag, which is inserted into an opaque (e.g., black) polyethylene bag, which is then sealed, wherein the packaging is sealed effectively to prevent penetration of humidity and/or oxygen. Exemplary packaging for the storage system of the present invention also can include packaging type 3, wherein temozolomide is packed and sealed in a transparent polyethylene bag, which is packed in an opaque (e.g., black) polyethylene bag, which is then sealed and, in turn, packed and sealed in a laminated aluminum bag, which is then sealed. In packaging type 2 and in packaging type 3, a desiccant optionally can be interposed (e.g., dispersed) between the two polymeric bags/layers. In accordance with the present invention, each packaging, e.g., packaging type 1, type 2, and/or type 3 as described herein, can be packed under an inert atmosphere (e.g., under a nitrogen atmosphere) or in ambient air. In a preferred embodiment, the storage system of the present invention includes a type 3 packaging with a silica gel desiccant, wherein the packaging is optionally packed and sealed under a nitrogen atmosphere. An exemplary type 3 packaging is described in Example 2, which describes a type 3 packaging containing a silica gel desiccant, optionally under nitrogen atmosphere, which is effective in maintaining the temozolomide white color for long storage periods. […]

[3] = Effect of relative humidity on temozolomide stability, visual colour test in open glass vessel (Example 4)
Experimental: Three samples of temozolomide were stored in an open glass vessel at different relative humidity (RH) conditions for storage periods of up to 3 weeks, after which time the color changes were evaluated.

Structure (SMILES) | Initial purity, % by HPLC [1] [%] | Purity, % by HPLC after 1 month of storage ([1]; type 3 packaging) [%] | Purity, % by HPLC after 2 months of storage ([1]; type 3 packaging) [%] | Purity, % by HPLC after 6 month of storage ([1]; type 3 packaging) [%] | Rate of decomposition on storage ([1]; type 3 packaging, wet sample (water about 1.8%) vs dry samples 3417 and 3034 (water less than 0.1%, KF)) | Color ([2]; Type 1 at ambient air, storage period 6 weeks, warehouse conditions, initially white) | Color ([2]; Type 3 - the inner bag of entry 2 was left out (sealed) for two more weeks, 6 weeks) | Color ([2]; Type 3 at ambient air containing a desiccant in the inner packaging, 4 weeks, warehouse conditions) | Color ([2]; Type 3 at ambient air containing a desiccant in the inner packaging, 10 weeks, warehouse conditions) | Color ([2]; Type 3 under nitrogen containing a desiccant in the inner packaging, 6 weeks, warehouse conditions) | Color ([2]; Type 3 under nitrogen without desiccant in the inner packaging, 8 weeks, warehouse conditions) | Result of visual test ([3]; RH 20%, 3 weeks) | Result of visual test ([3]; RH 80%, 4 days)
Cn1nnc2c(C(N)=O)ncn2c1=O [Sample 519, temozolomide] | 97.9 | 97.3 | 97.3 | 96.2 | appeared to decompose at a faster rate than the dry samples | – | – | – | – | – | – | – | –
Cn1nnc2c(C(N)=O)ncn2c1=O [Sample 3034, temozolomide] | 99.8 | 99.7 | 99.8 | 99.8 | – | – | – | – | – | – | – | – | –
Cn1nnc2c(C(N)=O)ncn2c1=O [Sample 3417, temozolomide] | 99.7 | 99.8 | 99.9 | 99.7 | – | – | – | – | – | – | – | – | –
Cn1nnc2c(C(N)=O)ncn2c1=O [temozolomide, 8-carbamoyl-3-methyl-imidazo[5,1-d]-1,2,3,5-tetrazin-4(3H)-one] | – | – | – | – | – | pinkish | pinkish | white | white | white | pinkish | White | pink color
